Test results published in patent US20030083237A1, “Anti-angiogenic peptides for cancer treatment” (priority 2001, published 2003).
pIC50: −log10 of the molar value. Ends that are not written are not given here. Peptide text beside a SMILES is read from it.

System: BCE cells (Bovine Capillary Endothelial cells)
Assay type: cell-based
Settings: for inhibiting the growth of BCE cells (in-vitro inhibition studies, FIG. 2): result in words
Procedure: The inhibition of said peptides on the endothelial cells was performed on BCE cells (Bovine Capillary Endothelial cells) as shown in Example 9. The inhibition of said peptide on the endothelial cells was performed on BCE cells (Folkman et al, Proceedings of the National Academy of Sciences USA. 76: 5217-5221 (1979)). The medium contains 90% DMEM (Dulbecco's Modified Eagle Medium), 10% FBS (fetal bovine serum), and 2 ng/mL of bFGF (basic fibroblast growth factor). A 24-well platelet was used for the growth of the BCE cells. To each well, 8,000-10,000 cells and 0.5 mL of the medium were added. The medium in each of the test wells was replaced by medium containing P1, P2, P3, P4, P5, P6, P7, or AK38 after 12 hours and continue to grow 5-7 days at 37° C. the BCE cells, in comparison to the control samples, to evaluate the inhibition on the growth of endothelial cells. The concentration inhibiting 50% of the cell growth is defined as IC50. […] (FIG. 6)

Compound	inhibiting the growth of BCE cells (in-vitro inhibition studies, FIG. 2)	pIC50
ASSSFD [Peptide P7, protected form of peptide {7} of AK38 kringle]	none of the four peptides (P1, P2, P6, and P7) is significantly effective	–
QQWAAQEPHRHSTFIPGTNKWAGLEKNY [Peptide P3, protected form of peptide {3} of AK38 kringle]	minor inhibition effect	–
CSCC[C@H](NC(=O)[C@@H](NC(=O)[C@H](Cc1ccc(O)cc1)NC(C)=O)[C@@H](C)O)C(=O)N[C@@H](CC(N)=O)C(=O)N1CCC[C@H]1C(=O)N[C@@H](CCCNC(=N)N)C(=O)N[C@@H](CCCCN)C(=O)N[C@@H](CC(C)C)C(=O)N[C@@H](Cc1ccccc1)C(=O)N[C@@H](CC(=O)O)C(=O)N[C@@H](Cc1ccc(O)cc1)C(N)=O [Peptide P5, Tyr-Thr-Met-Asn-Pro-Arg-Lys-Leu-Phe-Asp-Tyr] (Ac-YTMNPRKLFDY-NH2)	very effective	7.35
MFGNGKGYRGKKATTVTGTP [Peptide P2, protected form of peptide {2} of AK38 kringle]	none of the four peptides (P1, P2, P6, and P7) is significantly effective	–
CC[C@H](C)[C@H](NC(=O)[C@H](CC(=O)O)NC(=O)CNC(=O)[C@H](CC(=O)O)NC(=O)[C@@H]1CCCN1C(=O)[C@H](CC(N)=O)NC(=O)[C@H](CCCNC(=N)N)NC(C)=O)C(=O)N[C@@H](CC(N)=O)C(=O)NCC(=O)N1CCC[C@H]1C(=O)N[C@@H](Cc1c[nH]c2ccccc12)C(N)=O [Peptide P4, Arg-Asn-Pro-Asp-Gly-Asp-Ile-Asn-Gly-Pro-Trp] (Ac-RNPDGDINGPW-NH2)	very effective	7.00
IVPSLGPPSEQD [Peptide P1, protected form of peptide {1} of AK38 kringle]	none of the four peptides (P1, P2, P6, and P7) is significantly effective	–
Asp-Ile-Pro-Leu (DIPL; printed: Asp-Ile-Pro-Leu) [Peptide P6, protected form of peptide {6} of AK38 kringle]	none of the four peptides (P1, P2, P6, and P7) is significantly effective	–
